Laboratory results published in article PMC12118597 (Science Advances, 2025).
Read-outs that look alike come from different tables or passages of the source.

What was measured:
[1] = target: T1, SARS-CoV-2 NSP3 macrodomain (Mac1) (Severe acute respiratory syndrome coronavirus 2, UniProt P0DTD1); experiment: biochemical; type: binding
[2] = target: T1, SARS-CoV-2 NSP3 macrodomain (Mac1); type: binding; conditions: for 1-BDC: PanDDA background density correction; for Refined ligand occupancy (%): crystallographic refinement; for 2*(1-BDC) (%): occupancy estimate from PanDDA; for 1-BDC (PanDDA run, DMSO background map): event 1
[3] = HTRF binding curve, SARS-CoV-2 Mac1
[4] = SARS CoV-2 macrodomain HTRF assay, dose-response
[5] = ligand-bound crystal structure obtained (TRUE)
[6] = site occupied in X-ray crystal structure
[7] = crystal soak concentration 10 mM
[8] = crystal soak concentration 10 mM, P43 crystals

Row | Compound | Hill slope [1, 3] | Hill slope [1, 4] | 1-BDC [2] | Refined ligand occupancy (%) [2] [%] | X-ray crystal structure [2, 5] | 2*(1-BDC) (%) [2] [%] | Binding site [2, 6] | Hit (PanDDA run, DMSO background map) [2, 7] | 1-BDC (PanDDA run, DMSO background map) [2, 7] | Hit (PanDDA run, overall) [2, 8] | Modeling comment (PanDDA run, overall) [2, 8] | Hit (PanDDA run, overall) ([2]; crystal soak 10 mM, P43 crystal form) | Hit (PanDDA run, DMSO background map) ([2]; crystal soak 10 mM) | 1-BDC (PanDDA run, DMSO background map) ([2]; crystal soak 10 mM) | X-ray crystal structure ([2]; TRUE = crystal structure with ligand obtained) | Binding site ([2]; site of ligand in X-ray crystal structure)
1 | OC1(CNc2ncnc3[nH]ccc23)COC2CC1C2 (stereo not shown) [AVI-4313] | 1.2 | 1.2 | 0.19 | 38 | TRUE | 38 | Adenosine |  |  |  |  |  |  |  |  | 
2 | OC1(CNc2ncnc3[nH]ccc23)CCOCC1 [AVI-4314] | 1.2 | 1.2 | 0.15 | 30 | TRUE | 30 | Adenosine |  |  |  |  |  |  |  |  | 
3 | O=S1(=O)CCCC(O)(CNc2ncnc3[nH]ccc23)C1 (stereo not shown) [AVI-4317] | 1.2 | 1.2 | 0.43 | 100 | TRUE | 86 | Adenosine |  |  |  |  |  |  |  |  | 
4 | CN(CC1(O)CCOCC1)c1ncnc2[nH]ccc12 [AVI-4318] | 1.2 | 1.2 | 0.25 | 50 | TRUE | 50 | Adenosine |  |  |  |  |  |  |  |  | 
5 | OC1(CNc2ncnc3[nH]ccc23)CCSCC1 [AVI-4319] | 1.2 | 1.2 | 0.16 | 32 | TRUE | 32 | Adenosine |  |  |  |  |  |  |  |  | 
6 | OC1(CNc2ncnc3[nH]ccc23)CC2CCC1CC2 (stereo not shown) [AVI-4320] | 1.1 | 1.1 | 0.14 | 28 | TRUE | 28 | Adenosine |  |  |  |  |  |  |  |  | 
7 | OC1(CNc2ncnc3[nH]ccc23)CCCSC1 (stereo not shown) [AVI-4322] | 1.3 | 1.3 | 0.21 | 42 | TRUE | 42 | Adenosine |  |  |  |  |  |  |  |  | 
8 | Cc1c[nH]c2ncnc(NCC3(O)CCC(C)(C)CC3)c12 [AVI-4330] | 1.3 | 1.3 |  |  |  |  |  | TRUE | 0.11 | TRUE | Weak density, not modeled |  |  |  |  | 
9 | Cc1c[nH]c2ncnc(NCC3(O)CCC(C)CC3)c12 (stereo not shown) [AVI-4331] | 1.2 | 1.2 | 0.27 | 54 | TRUE | 54 | Adenosine | TRUE | 0.23 | TRUE | Duplicate, not modeled | TRUE | TRUE | 0.27 |  | 
10 | CC(C)(CO)Nc1ncnc2[nH]ccc12 [AVI-5266] | 1.1 | 1.1 | 0.12 | 40 |  | 24 |  |  |  |  |  |  |  |  | TRUE | Adenosine
11 | CC1(C)CCN(c2ncnc3[nH]ccc23)C(CO)C1 (stereo not shown) [AVI-5994] | 1.2 | 1.2 | 0.23 | 46 | TRUE | 46 | Adenosine |  |  |  |  |  |  |  |  | 
12 | O[C@H]1CC[C@H]2CCN(c3ncnc4[nH]ccc34)[C@H]21 [AVI-5997] | 1.2 | 1.2 | 0.29 | 70 | TRUE | 58 | Adenosine |  |  |  |  |  |  |  |  | 
13 | OCC1C=CCCN1c1ncnc2[nH]ccc12 (stereo not shown) [AVI-5998] | 1.2 | 1.2 | 0.19 | 38 | TRUE | 38 | Adenosine |  |  |  |  |  |  |  |  | 
14 | OCC1CC=CCN1c1ncnc2[nH]ccc12 (stereo not shown) [AVI-6002] | 1.3 | 1.3 | 0.16 | 50 | TRUE | 32 | Adenosine |  |  |  |  |  |  |  |  | 
15 | OC1(CNc2ncnc3[nH]ccc23)CCCCC1 [AVI-6217] | 1.1 | 1.1 | 0.22 | 60 | TRUE | 44 | Adenosine |  |  |  |  |  |  |  |  | 
16 | OC1CCC(O)(CNc2ncnc3[nH]ccc23)CC1 (stereo not shown) [AVI-6220] | 1.3 | 1.3 | 0.07 | 14 | TRUE | 14 | Adenosine |  |  |  |  |  |  |  |  | 
